How the values were obtained:
Type in all cases: in vivo
Conditions in all cases: foliar, compared to untreated control leaf disks, read-out: disease control
[1] = test system: Puccinia recondita f. sp. tritici; test: Puccinia recondita f. sp. tritici / wheat / leaf disc preventative (brown rust)
Description: Puccinia recondita f. sp. tritici/Wheat/Leaf Disc Preventative (Brown Rust) Wheat leaf segments cv. Kanzler were placed on agar in multiwell plates (24-well format) and sprayed with the formulated test compound diluted in water. The leaf disks were inoculated with a spore suspension of the fungus 1 day after application.

[2] = test system: Puccinia recondita f. sp. tritici; test: Puccinia recondita f. sp. tritici / wheat / leaf disc curative (brown rust)
Description: Puccinia recondita f. sp. tritici/Wheat/Leaf Disc Curative (Brown Rust) Wheat leaf segments cv. Kanzler are placed on agar in multiwell plates (24-well format). The leaf segments are inoculated with a spore suspension of the fungus. Plates were stored in darkness at 19° C. and 75% rh. The formulated test compound diluted in water was applied 1 day after inoculation.

[3] = test system: Blumeria graminis f. sp. tritici (Erysiphe graminis f. sp. tritici); test: Blumeria graminis f. sp. tritici / wheat / leaf disc preventative (powdery mildew on wheat)
Description: Blumeria graminis f. sp. tritici (Erysiphe graminis f. sp. tritici)/Wheat/Leaf Disc Preventative (Powdery Mildew on Wheat)
Wheat leaf segments cv. Kanzler were placed on agar in a multiwell plate (24-well format) and sprayed with the formulated test compound diluted in water. The leaf disks were inoculated by shaking powdery mildew infected plants above the test plates 1 day after application. The inoculated leaf disks were incubated at 20° C. and 60% rh under a light regime of 24 h darkness followed by 12 h light/12 h darkness in a climate chamber and the activity of a compound was assessed as percent disease control compared to untreated when an appropriate level of disease damage appears on untreated check leaf segments (6-8 days after application).
The following compounds gave at 200 ppm give at least 50% disease control in this test when compared to untreated control leaf disks under the same conditions, which show extensive disease development: […]

Measured: pest or weed control at 200 ppm

CCCCCCCCCCOc1nc(C)c(/N=C/N(C)CC)cc1C [Q.058]
≥ 50%: [1] | [2] | [3]

CCN(C)/C=N/c1cc(Br)c(OCCCC(CCl)OC=O)nc1C (stereo not drawn) [Q.060]
≥ 50%: [1] | [2] | [3]

CCN(C)/C=N/c1cc(Br)c(OCc2ccc(Cl)c(Cl)c2)nc1C [Q.064]
≥ 50%: [1] | [2] | [3]

CCOC(=O)COc1nc(C)c(/N=C/N(C)CC)cc1C [Q.065]
≥ 50%: [1] | [2] | [3]

CCN(C)/C=N/c1cc(Br)c(O[C@@H]2C[C@@H]3ON=C(C)[C@@H]3C2)nc1C [Q.068]
≥ 50%: [1] | [2] | [3]

CCN(C)/C=N/c1cc(Br)c(OC2CCC3(CC2)NC(=O)NC3=O)nc1C (stereo not drawn) [Q.072]
≥ 50%: [1] | [2] | [3]

CCN(C)/C=N/c1cc(Br)c(OCc2cc(-c3ccccc3)no2)nc1C [Q.073]
≥ 50%: [1] | [2] | [3]

CCN(C)/C=N/c1cc(Br)c(OC(C)(C)c2cc(-c3ccccc3)no2)nc1C [Q.077]
≥ 50%: [1] | [2] | [3]

C#CCOc1nc(C)c(/N=C/N(C)CC)cc1Br [Q.078]
≥ 50%: [1] | [2] | [3]

C#CC(C)Oc1nc(C)c(/N=C/N(C)CC)cc1Br (stereo not drawn) [Q.080]
≥ 50%: [1] | [2] | [3]

CCN(C)/C=N/c1cc(Br)c(OC2CCC(C(C)(C)C)CC2)nc1C (stereo not drawn) [Q.081]
≥ 50%: [1] | [2] | [3]

CCN(C)/C=N/c1cc(Br)c(OC2CCCCC2C)nc1C (stereo not drawn) [Q.084]
≥ 50%: [1] | [2] | [3]

CCOc1nc(C)c(/N=C/N(C)CC)cc1Br [Q.085]
≥ 50%: [1] | [2] | [3]

CCN(C)/C=N/c1cc(Br)c(OC2C(C)CCCC2C)nc1C (stereo not drawn) [Q.094]
≥ 50%: [1] | [2] | [3]

CCN(C)/C=N/c1cc(Br)c(OCC2CC=CC2)nc1C [Q.098]
≥ 50%: [1] | [2] | [3]

CCN(C)/C=N/c1cc(Br)c(OCc2snc(-c3ccccc3)c2Cl)nc1C [Q.109]
≥ 50%: [1] | [2] | [3]

CCN(C)/C=N/c1cc(Br)c(OC(C)c2ccc(C)cc2)nc1C (stereo not drawn) [Q.112]
≥ 50%: [1] | [2] | [3]

CCN(C)/C=N/c1cc(Br)c(OCCCC=C(C)C)nc1C [Q.118]
≥ 50%: [1] | [2] | [3]

CCN(C)/C=N/c1cc(Br)c(OCc2cc(-c3ccc(F)cc3)ns2)nc1C [Q.123]
≥ 50%: [1] | [2] | [3]

CCN(C)/C=N/c1cc(Br)c(OC2CCCc3ccc(Br)cc32)nc1C (stereo not drawn) [Q.126]
≥ 50%: [1] | [2] | [3]

CCN(C)/C=N/c1cc(Br)c(OC2CCc3ccc(Br)cc3C2)nc1C (stereo not drawn) [Q.127]
≥ 50%: [1] | [2] | [3]

CCN(C)/C=N/c1cc(Br)c(OCc2ccc(C)nc2)nc1C [Q.130]
≥ 50%: [1] | [2] | [3]

C/C=C/CCCCOc1nc(C)c(/N=C/N(C)CC)cc1Br [Q.132]
≥ 50%: [1] | [2] | [3]

CCN(C)/C=N/c1cc(Br)c(OCC2CC(C)=C(C)C2)nc1C [Q.134]
≥ 50%: [1] | [2] | [3]

C=CCC(CC=C)Oc1nc(C)c(/N=C/N(C)CC)cc1Br [Q.140]
≥ 50%: [1] | [2] | [3]

C=CCC(C)Oc1nc(C)c(/N=C/N(C)CC)cc1Br (stereo not drawn) [Q.145]
≥ 50%: [1] | [2] | [3]

CCN(C)/C=N/c1cc(Br)c(OC(C)CCc2ccccc2)nc1C (stereo not drawn) [Q.147]
≥ 50%: [1] | [2] | [3]

CCN(C)/C=N/c1cc(Br)c(OC2CCCC(C)C2)nc1C (stereo not drawn) [Q.149]
≥ 50%: [1] | [2] | [3]

CCN(C)/C=N/c1cc(Br)c(OCc2cc(C(F)(F)F)cc(C(F)(F)F)c2)nc1C [Q.152]
≥ 50%: [1] | [2] | [3]

CCN(C)/C=N/c1cc(Br)c(OCc2snc(C(C)C)c2C#N)nc1C [Q.156]
≥ 50%: [1] | [2] | [3]

C=CCN1CCC(Oc2nc(C)c(/N=C/N(C)CC)cc2Br)CC1 [Q.165]
≥ 50%: [1] | [2] | [3]

CCN(C)/C=N/c1cc(Br)c(OC2CCCCCC2)nc1C [Q.171]
≥ 50%: [1] | [2] | [3]

CCN(C)/C=N/c1cc(Br)c(OC2C=CCCC2)nc1C (stereo not drawn) [Q.172]
≥ 50%: [1] | [2] | [3]

CCN(C)/C=N/c1cc(Br)c(OCc2cccc(N(C)C)c2)nc1C [Q.177]
≥ 50%: [1] | [2] | [3]

CCN(C)/C=N/c1cc(I)c(O[C@H]2CC[C@H](C(C)C)CC2)nc1C [Q.179]
≥ 50%: [1] | [2] | [3]

CCN(C)/C=N/c1ccc(OC(C)c2cc(F)cc(F)c2)nc1C (stereo not drawn) [Q.181]
≥ 50%: [1] | [2] | [3]

CCN(C)/C=N/c1cc(C)c(O[C@H]2CC[C@H](C(C)C)CC2)nc1C [Q.185]
≥ 50%: [1] | [2] | [3]

Cc1nc(OC(C)c2cc(F)cc(F)c2)c(Br)cc1/N=C/N(C)C(C)C (stereo not drawn) [Q.188]
≥ 50%: [1] | [2] | [3]

C=CCN(C)/C=N/c1cc(Br)c(OC(C)c2cc(F)cc(F)c2)nc1C (stereo not drawn) [Q.192]
≥ 50%: [1] | [2] | [3]

CCN(C)/C=N/c1cc(Br)c(OC(C)c2cc(Cl)cc(Cl)c2)nc1C (stereo not drawn) [Q.205]
≥ 50%: [1] | [2] | [3]

CCN(C)/C=N/c1cc(Br)c(OC2CCC(O)CC2)nc1C (stereo not drawn) [Q.213]
≥ 50%: [1] | [2] | [3]

CC#Cc1cc(/N=C/N(C)CC)c(C)nc1OC(C)c1cc(F)cc(F)c1 (stereo not drawn) [Q.230]
≥ 50%: [1] | [2] | [3]

CCN(C)/C=N/c1cc(Br)c(OC(C)c2ccc3c(c2)CCC3)nc1C (stereo not drawn) [Q.239]
≥ 50%: [1] | [2] | [3]

CCN(C)/C=N/c1cc(-c2ccccc2)c(OC(C)c2cc(F)cc(F)c2)nc1C (stereo not drawn) [Q.263]
≥ 50%: [1] | [2] | [3]

CCN(C)/C=N/c1cc(-c2ccsc2)c(OC(C)c2cc(F)cc(F)c2)nc1C (stereo not drawn) [Q.265]
≥ 50%: [1] | [2] | [3]

CCN(C)/C=N/c1cc(Br)c(O[C@H]2CC[C@H](c3ccccc3)CC2)nc1C [Q.270]
≥ 50%: [1] | [2] | [3]

CCN(C)/C=N/c1cc(Br)c(OCC[Si](C)(C)C)nc1C [Q.271]
≥ 50%: [1] | [2] | [3]

CCN(C)/C=N/c1cc(Br)c(OC(C)CC[Si](C)(C)C)nc1C (stereo not drawn) [Q.273]
≥ 50%: [1] | [2] | [3]

CCN(C)/C=N/c1cc(Br)c(OCC[Si](CC)(CC)CC)nc1C [Q.274]
≥ 50%: [1] | [2] | [3]
